Experimental data as given in patent US8119798B2, “P38 kinase inhibitors” (GlaxoSmithKline LLC, priority 2006, dated 2012).
pEC50: −log10 of the molar value.

test system: secretion of TNF-α from LPS-stimulated human monocytes; assay: LPS-induced TNF-alpha production in human THP-1 cell line; type: cell-based; conditions: Monocyte, read-out: EC50, inhibition of secretion of TNF-α from LPS-stimulated human monocytes
Procedure: THP-1 (human, monocytic) cell line was purchased from the American Type Culture Collection (ATCC, Cat. No.TIB 202). Cell line was passaged three times per week in RPMI 1640 (GIBCO), supplemented with 10% heat-inactivated fetal bovine serum (FBS; Omega Scientific, Tarzana, Calif.), 2 mM L-glutamine, 100 U/ml penicillin and 100 μg/ml streptomycin (Gibco/Invitrogen, Carlsbad, Calif.) in a humidified incubator with 95% air and 5% CO2 at 37° C.
For the assay THP-1 cells were harvested, counted and suspended at 1E6 cells/ml in culture medium. 200 μl of cell suspension was added to each well at 96 well plates to provide density of 2×10^5 cells per well. Serial dilutions of P38 compounds were prepared at final concentrations in culture medium from a 10 mM stock solution, and assayed in triplicate. Vehicle was prepared by adjusting culture medium to 0.1% v/v DMSO which corresponds to the concentration of DMSO in the wells with test compounds.
Cells were incubated in presence of the P38 inhibitor for 30 min. After that cells were stimulated with LPS (E. coli 026:B6, 1 μg/ml) for 4 hr at 37° C. in a 5% CO2-incubator. Reaction was stopped by placing samples on ice and centrifuging for 10 min at 1500×g at 4° C. Cell supernatants were harvested and concentration of TNF—was determined by ELISA (BD Pharmingen, San Diego, Calif., Cat. No. 555212), following the manufacturer's instruction. Absorbance read and analyzed at 450 nm on a spectrophotometric ELISA plate reader (Labsystems Multiskan MCC/340). Replicate readings were averaged and the results are expressed as a percent of OD signal from control.

pEC50 | Compound
7.48 | CONC(=O)c1ccc(C)c(Nc2nc(NCC3CCCC(CN)C3)nc(N[C@H](C)C(C)(C)C)n2)c1 (stereo partly shown) [Compound 9]
6.91 | CONC(=O)c1ccc(C)c(Nc2nc(NCc3cccc(C)c3)nc(N[C@H](C)C(C)(C)C)n2)c1 [Compound 12]
7.96 | CONC(=O)c1ccc(C)c(Nc2nc(NCC3CCCC(CN)C3)nc(NC3CCCCC3)n2)c1 (stereo not shown) [Compound 11]
7.66 | CONC(=O)c1ccc(C)c(Nc2nc(NCC3CCCC(CN)C3)nc(NC3CCCCC3C)n2)c1 (stereo not shown) [Compound 10]
